Assay [1] deals with HEK293 cells. Briefly: Fatty acid uptake assay using HEK293 cells. The class given is cell-based. To be noted: Homo sapiens, CPT1 inhibitor, racemic mixture, FIG. 1. On the procedure:
HEK293 cells were thawed and centrifuged at 400 g in 1 min, whereafter the supernatant was discarded. The cells were resuspended in DMEM+GlutaMax medium (cat #10566016, Invitrogen) containing 10% fetal calf serum (cat #10270-106, Invitrogen) and 1% penicillin/streptomycin (cat #15140-122, Life Technologies). HEK293 cells were seeded into a T25 flask and incubated at 37 degrees Celsius until 80% confluency. When the HEK293 cells reached confluency, cells were counted and seeded in a 96-well plate and with a volume of 10.000 cells/well in medium (as described above) and incubated overnight. Three wells were without cells serving as controls.
The cells were divided into two groups: 1) Example 1, and 2) Untreated. The fatty acid uptake assay (cat #408-100, BioVision) was carried out according to the protocol from BioVision. The only exception to the protocol was that the measurements in the PerkinElmer Multimode Plate Reader Enspire instrument was running overnight.
Statistics was performed in GraphPad Prism version 8.0. Repeated measure two-way ANOVA were conducted as the groups were tested multiple times followed by a multiple comparison Bonferroni post hoc test.

Assay [2] deals with SOD1 G93A mice. In words: Efficacy study (survival) in SOD1 G93A mouse model of ALS. It is filed as in vivo. To be noted: compared to vehicle, Edaravone and Riluzole, survival = neurological score below 4, FIG. 2. The procedure:
All experiments were approved by the Danish Animal Experiment Inspectorate (2017-15-0202-00088) and followed the National and European guidelines for conducting animal experiments. Animal experiments was conducted according to the ARRIVE guidelines. Mice were housed in IVC cages in a high barrier facility at Aalborg University, Denmark with a room temperature of 21° C. The mice were kept at a 12-hour light/dark cycle and had ad libitum access to food and water.
B6.Cg-Tg(SOD1*G93A)1Gur/J mice (Stock #004435) (SOD1) were purchased from Jackson Laboratory (Bar Harbor, USA). The congenic SOD1 mice were maintained in our animal facility by crossing hemizygote SOD1 male mice with female C57BI/6J mice. Litters were genotyped according to established protocol using DNA extracted from ear tissue punches. Male SOD1 mice were used to maintain the colony, and SOD1 female and their wildtype littermates were used for experiments. All animals were assessed for human endpoints daily, weight twice a week, and neurological score once a week. SOD1 females (n=4) were evaluated at baseline and day 128 for cylinder, dark-light and y-maze tests, and at baseline and day 142 by neurological score, grip strength, hangwire test and rotarod. […] In addition, survival was evaluated as described under neurological score, onset of disease and survival analysis.
Mice were evaluated by the same experimenter weekly. […]

One may read the IC50 as the concentration that inhibits the measured activity by half.

As to `CC(=O)N1CCC(c2nc(-c3ccncc3)cs2)N(C(=O)COc2ccccc2)CC1` (single isomer, unassigned) [Example 1, 1-(4-acetyl-7-(4-(pyridin-4-yl)thiazol-2-yl)-1,4-diazepan-1-yl)-2-phenoxyethan-1-one], in assay [1], the concentration for half-maximal inhibition (IC50) amounted to 300 nM.

Turning to `CC(=O)N1CCC(c2nc(-c3ccncc3)cs2)N(C(=O)COc2ccccc2)CC1` (single isomer, unassigned) [Example 1-E1], in assay [2], the survival result is recorded as “improved survival”. `CC(=O)N1CCC(c2nc(-c3ccncc3)cs2)N(C(=O)COc2ccccc2)CC1` (single isomer, unassigned) [Example 1-E2]: the survival result in assay [2] was “improved survival”.

Source of the values: patent US20240246957A1, “Diazepane Derivatives, Processes for their Preparation, and Uses thereof for the Amelioration, Prevention and/or Treatment of Mental and Neurological Diseases” (2N Pharma ApS, priority 2021, published 2024).
